Test results published in patent US20030199694A1, “Thermally stable trimetrexates and processes for producing the same” (MedImmune Oncology, Inc., priority 1998, published 2003).

How the values were obtained:
[1] = cited from earlier work
[2] = at 37° C.; cited from earlier work
[3] = Thermal stability of TMH relative to anhydrous trimetrexate: storage at 25° C. or 50° C., HPLC assay, impurities and moisture; type: physicochemical
Method: Samples of trimetrexate monohydrate and anhydrous trimetrexate were analyzed to compare the thermal stability of anhydrous trimetrexate with the trimetrexate monohydrate of the present invention. Anhydrous trimetrexate was prepared by dehydrating trimetrexate monohydrate. A sample of trimetrexate monohydrate (about 30 g) was placed in a Petri dish and dried in a vacuum dessicator over phosphorus pentoxide. The sample was dried at a pressure of about 100 microns for 6 days. The following procedure was used to assay the purity of trimetrexate monohydrate and anhydrous trimetrexate samples. Samples of the compounds were analyzed by HPLC. The mobile phase is prepared by first dissolving 5 g of sodium dodecyl sulfate (Aldrich 86,201-0 or equivalent) in 1100 mL water and adjusting the pH to 3.0 with glacial acetic acid (about 5 mL). 825 mL of HPLC grade acetonitrile is then added, and the solution mixed thoroughly, while avoiding excessive foaming. The unfiltered solution is then degassed by sonicating for 5 minutes. The solution is degassed immediately before use, and at the beginning of each day. Duplicate standard solutions are prepared with a trimetrexate reference compound at a concentration of 0.2 mg/mL in the mobile phase solution (“STD-1” and “STD-2”). The standard solutions are stored under refrigeration when not in use, and fresh solutions are prepared daily. Sample solutions of anhydrous trimetrexate and trimetrexate monohydrate are also prepared at 0.2 mg/mL in the mobile phase solution. The system is checked before testing the sample solutions by analyzing the reproducibility of trimetrexate peak area measurements for six injections of the standard trimetrexate solution (STD-1), trimetrexate peak symmetry, and agreement between the duplicate standard preparations. The acceptance criteria are as follows: For assay data, the HPLC operating parameters are as follows: [table] For the determination of impurities, the operating parameters are as before, except that the run time is extended to 30 minutes to detect all possible impurities and/or degradation products, and an attenuation of 32 is used. A mobile phase blank is first run, followed by a sample solution. Purity (%w/w)=[(mg found×100%)+mg sample weighed)]×[…] Peak Area (%)=[peak area (imp)÷(Σpeak area (all impurities+TMTX))]×100. Samples of the anhydrous and monohydrate compounds were initially assayed for purity and moisture content. The samples were stored for 4 weeks at either 25° C. or 50° C. HPLC chromatograms were recorded for the samples stored at each temperature after 3 days, 1 week, 2 weeks and 4 weeks of storage, and the samples assayed at each time interval for purity, impurities and water content. […] The peak at about 13 minutes corresponds to the non-degraded compound; this peak is truncated in the Figure in order to expand the y-axis to view the impurities. […] The “amine” entry in Table 9 corresponds to the amine degradation product which is prominent in FIG. 7 as the large peak at about 20 minutes in the anhydrous sample. This degradation product was isolated and identified as 6-aminomethyl-5-methyl-2,4-quinazolinediamine. It is a pale yellow powder, with a molecular formula of C10H13N5 and a formula weight of 203.25 g/mol. The structure of the compound is shown below [drawing 11]

[4] = system: murine cell lines such as L1210, L5178Y, S-180, W-256; conditions: cited from earlier work
[5] = system: human tumor cells lines derived from breast, colon, lung, ovary, renal and melanoma cells; conditions: human tumor cell lines from breast; cited from earlier work
[6] = system: murine tumors such as B16 melanoma, colon 26 and 38, L1210 and p388 leukemia and CD8F mammary tumors; conditions: cited from earlier work
[7] = Hygroscopicity; type: physicochemical
[8] = stored at 25° C., 1 week, monohydrate
[9] = stored at 25° C., 2 weeks, monohydrate
[10] = stored at 25° C., 4 weeks, monohydrate
[11] = stored at 25° C., 3 days, monohydrate
[12] = stored at 50° C., 1 week, monohydrate
[13] = stored at 50° C., 2 weeks, monohydrate
[14] = stored at 50° C., 4 weeks, monohydrate
[15] = stored at 50° C., 3 days, monohydrate

## COc1cc(NCc2ccc3nc(N)nc(N)c3c2C)cc(OC)c1OC.O=C(O)[C@H]1O[C@H](O)[C@H](O)[C@@H](O)[C@@H]1O [trimetrexate glucuronate]
[1]
  water solubility: > 50 mg/mL
[2]
  half-life in solution: 51.6 ± 0.8 days

## COc1cc(NCc2ccc3nc(N)nc(N)c3c2C)cc(OC)c1OC [Anhydrous, 2,4-diamino-5-methyl-6-[(3,4,5-trimethoxyanilino)methyl] quinazoline]
[3]; Initial
  % Moisture: 0.1%
[3]; Initial, before storage, HPLC purity
  Assay: 98.5 w/w
[3]; Initial, HPLC
  Total Impurities: 0.3 % area
[3]; Initial, degradation product 6-aminomethyl-5-methyl-2,4-quinazolinediamine, HPLC
  Amine: 0.2 % area
[3]; stored at 25° C., 1 week
  % Moisture: 0.4%
  Amine: 0.3 % area
  Assay: 96.6 w/w
  Total Impurities: 0.4 % area
[3]; stored at 25° C., 2 weeks
  % Moisture: 0.2%
  Amine: 0.4 % area
  Assay: 98.4 w/w
  Total Impurities: 0.5 % area
[3]; stored at 25° C., 4 weeks
  % Moisture: <0.1%
  Amine: 0.8 % area
  Assay: 97.6 w/w
  Total Impurities: 1.0 % area
[3]; stored at 25° C., 3 days
  % Moisture: 0.3%
  Amine: 0.2 % area
  Assay: 100.4 w/w
  Total Impurities: 0.4 % area
[3]; stored at 50° C., 1 week
  % Moisture: 0.7%
  Amine: 0.7 % area
  Assay: 95.0 w/w
  Total Impurities: 1.2 % area
[3]; stored at 50° C., 2 weeks
  % Moisture: 0.3%
  Amine: 1.4 % area
  Assay: 95.8 w/w
  Total Impurities: 2.1 % area
[3]; stored at 50° C., 4 weeks
  % Moisture: <0.1%
  Amine: 2.9 % area
  Assay: 92.7 w/w
  Total Impurities: 4.5 % area
[3]; stored at 50° C., 3 days
  % Moisture: 0.4%
  Amine: 0.4 % area
  Assay: 99.5 w/w
  Total Impurities: 0.7 % area
[1]
  water solubility: < 0.1 mg/mL
[4]
  antitumor activity in vitro: antitumor activity
[5]
  antitumor activity in vitro: antitumor activity
[6]
  therapeutic utility in vivo: therapeutic utility

## COc1cc(NCc2ccc3nc(N)nc(N)c3c2C)cc(OC)c1OC [Monohydrate, trimetrexate monohydrate]
[3]; Initial, before storage, HPLC purity, monohydrate
  Assay: 99.6 w/w
[3]; Initial, HPLC, monohydrate
  Total Impurities: 0.2 % area
[3]; Initial, degradation product 6-aminomethyl-5-methyl-2,4-quinazolinediamine, HPLC, monohydrate
  Amine: 0.1 % area
[3]; Initial, monohydrate
  % Moisture: 4.9%
[3]; after 4 weeks at 50° C., FIG. 7
  degradation products in HPLC chromatogram: no significant degradation products
[3]; [8]
  % Moisture: 4.5%
  Amine: 0.1 % area
  Assay: 96.3 w/w
  Total Impurities: 0.1 % area
[3]; [9]
  % Moisture: 4.9%
  Amine: 0.1 % area
  Assay: 99.4 w/w
  Total Impurities: 0.1 % area
[3]; [10]
  % Moisture: 4.3%
  Amine: 0.1 % area
  Assay: 99.6 w/w
  Total Impurities: 0.3 % area
[3]; [11]
  % Moisture: 4.7%
  Amine: 0.1 % area
  Assay: 101.4 w/w
  Total Impurities: 0.2 % area
[3]; [12]
  % Moisture: 4.6%
  Amine: 0.1 % area
  Assay: 98.6 w/w
  Total Impurities: 0.2 % area
[3]; [13]
  % Moisture: 4.8%
  Amine: 0.1 % area
  Assay: 98.7 w/w
  Total Impurities: 0.1 % area
[3]; [14]
  % Moisture: 4.4%
  Amine: 0.2 % area
  Assay: 99.6 w/w
  Total Impurities: 0.3 % area
[3]; [15]
  % Moisture: 4.7%
  Amine: 0.1 % area
  Assay: 99.4 w/w
  Total Impurities: 0.3 % area
[7]
  hygroscopicity: non-hygroscopic
